According to US9533957B2, “Tetrazines and method of synthezising the same” (The Regents of the University of California, priority 2012, dated 2017):
One block for each compound: values may come before it.

Key:
27mer DNA template [1] = assay: Melting temperatures of DNA template with probes and ligation products; format: physicochemical; details: hybridization target against 27mer template; 250 mM NaCl in buffer; 1 μM each oligonucleotide
Description: Melting temperature of probes and ligation products in hybridization buffer (50 mM MOPS pH 7.5, 250 mM NaCl) were measured using a Beckman-Coulter DU 640 spectrophotometer equipped with a high performance temperature controller and micro auto six-cell holder. Samples at 1 μM concentration of each oligonucleotide were heated to 90° C. and slowly cooled to RT over 1-1.5 h before the measurements. Melting temperature values were obtained by cooling samples from 90° C. to 20° C. at the rate of 1° C./min and measuring at 1° C. increments with each read averaged over 1 s.

27mer DNA template [2] = assay: Template-driven ligation of tetrazine and cyclopropene oligonucleotide probes (fluorescence); format: biochemical; details: for change in fluorescence in the absence of template: 1 μM probes, no template
Description: Tetrazine and cyclopropene-modified oligonucleotide probes were ligated in the presence of a DNA or RNA template at a 1:1:1 ratio. Reactions were done in varying solution and temperature conditions, as indicated. Main hybridization buffer was 50 mM MOPS at pH 7.5, 250 mM NaCl. Ligation reactions with a mismatched DNA template were performed in 5 mM MgCl2 in standard 1× Tris-borate buffer (purchased as 10× UltraPure TBE from Invitrogen: 1.0 M Tris pH 8.4, 0.9 M Boric acid, 10 mM EDTA).
Ligation reactions were done in standard 96 fluorescence well plates using SpectraMax GeminiXS (Molecular Devices). Temperature was set by the instrument. Where indicated by standard deviations, experiments were performed multiple times. In order to avoid any secondary structure artifacts, DNA or RNA template with added tetrazine probe was first heated to 90° C. and crash-cooled on ice for 2 min right before the experiment. Each well was filled with a total of 100 μL reaction solution, and reactions were timed from the addition of the cyclopropene probe as the last step before starting the measurements. Wells were scanned every 20-60 s depending on the speed of the reactions by using 485 nm excitation and 538 nm emission with the cutoff set at 495 nm. Control reactions without template were done in parallel each time. Buffer-only well intensities were subtracted from the measured raw data before analysis. Data was analyzed using GraphPad Prism 6.0 by applying a nonlinear fit of a one-phase association to each curve where fluorescein signal during reaction was measured.

[3] = Oligonucleotide probe stability in buffer and cell media; format: physicochemical; details: over a 35-hour period
[4] = tested on: LS174T human colon cancer cells; assay: Simultaneous imaging of two metabolically incorporated unnatural sugars and cross reactivity; format: cell-based
Description: (§1) The SKBR3 and LS174T cells were incubated for two days in the presence of 100 μM of Ac4ManNCyc and/or 50 μM Ac4GlcNAz on a Lab-Tek chamber slide maintained in cDMEM medium. Treatment of cells with tunicamycin was done by preparing a 0.2 mg/mL stock in DMSO, which was diluted to a final working concentration of 1.2 μM tunicamycin in cDMEM (0.5% DMSO). Cells were washed 3× with phosphate-buffered saline (PBS) and incubated for 1 hour at 37° C. in 10 μM tetrazine-BODIPY TMR-X, 10 μM tetrazine-Alexa flour 488 and/or 15 μM dibenzocyclooctyne (DIBO)-Alexa Fluor 647 in cDMEM. The media was aspirated, and cells were washed twice with PBS before imaging. All photos were collected with an Olympus FV1000 confocal microscope using ImageJ 1.45j software package.
Finally, we tested whether or not we could simultaneously image two different metabolically incorporated unnatural sugar derivatives, Ac4ManNCyc and tetraacetylated N-azidoacetylgalactosamine (Ac4GalNAz). […] Recent experimental work has shown that alkenes and azides can be mutually orthogonal to each other, even when using highly strained trans-cyclooctenes. Additionally, the Houk group has calculated that methyl-cyclopropene handles, such as those we have previously developed, should be mutually orthogonal to azide cyclooctyne reactions. We incubated LS174T human colon cancer cells with 100 μM Ac4ManNCyc and Ac4GalNAz for 2 days. After incubation, we sequentially stained the cells with 10 μM tetrazine-Alexa Fluor 488 and 15 μM dibenzocyclooctyne (DIBO) 647. […] Similar results were obtained with the SKBR3 cell line. […] The ability to simultaneously label two different metabolically incorporated molecules using live-cell compatible inverse-Diels-Alder and Huisgen reactions expands the capabilities of bioorthogonal metabolic imaging.

[5] = Aqueous stability of methyl-cyclopropenes by 1H NMR; format: physicochemical; details: for aqueous stability: aqueous deuterated solutions (D2O/DMSO-d6=4:1)
Excerpt: (§2) After synthesizing the new cyclopropene mini-tags, we next sought to compare their reactivity with tetrazines through inverse Diels-Alder cycloaddition. Additionally, we also assayed their aqueous stability, since methyl-cyclopropene tags are envisioned to find application in bioorthogonal coupling reactions. In order to monitor kinetics, we reacted eight representative methyl-cyclopropenes with 1-methyl-4-aryl tetrazine under pseudo-first order conditions, and tracked the reaction of tetrazine by monitoring the disappearance of the characteristic absorption at 530 nm, similar to previous reports. For stability experiments, we incubated methyl-cyclopropenes in aqueous deuterated solutions (D2O/DMSO-d6=4:1) as indicated.

[6] = Reactivity of methyl-cyclopropene mini-tags with tetrazine, pseudo-first order; format: physicochemical; details: for rate of reaction with tetrazines (in words): aqueous solvent
Excerpt: as §2

[7] = Storage stability of cyclopropene derivatives; format: physicochemical; details: for storage stability at −20° C.: stored at −20° C.
SKBR3 cells = assay: Live-cell microscopy of metabolically incorporated cyclopropene sugar; format: cell-based, human; details: glycosylation inhibitors or 20 mM ManNAc as competitive substrate
Description: SKBR3 and LS 174T cells were grown in cDMEM media supplemented with 10% fetal bovine serum, 1% L-glutamine, 1% penicillin/streptomycin. Cells were incubated in 5.0% carbon dioxide, 95% humidity at 37° C. Generally, cells were grown in T-75 tissue culture flasks, seeded at densities between 500,000 and 750,000 cells per flask (cells were quantified with the Life Technologies Countess automated cell counter). The cells were trypsinized with TrypLE Express and resuspended in cDMEM. Cells were allowed to incubate for two days before supplementing with Ac4ManNCyc (N-cyclopropeneacetylmannosamine) or Ac4GlcNAz (N-azidoacetylglucosamine). The cells were then analyzed via confocal microscopy and flow cytometry as described below.
as §1
In order to determine if Ac4ManNCyc was incorporated effectively by cells, we incubated adherent human breast cancer (SKBR3) and colon cancer (LS174T) cell lines with 100 μM Ac4ManNCyc for 48 hours in cell media and serum. After incubation, cells were thoroughly washed and then reacted for 1 hour with 10 μM of fluorogenic Alexa Fluor 488 tetrazine. After a second wash, cells were imaged by confocal microscopy (Olympus FV1000). […] In order to ensure that the staining was due to glycan uptake of the probe, we also performed controls by exposing cells to 100 μM Ac4ManNCyc and inhibiting uptake by using glycosylation inhibitors (ie. tunicamycin and αBnGalNAc) or 20 mM of ManNAc as a competitive substrate.^[14] […] These experiments provide evidence that the staining patterns are reporting on glycosylation and uptake of the unnatural cyclopropene mannosamine. We also performed additional studies using flow cytometry to quantitate the relative uptake of sugars that corroborated the imaging data.

[8] = Reaction rate determination of cyclopropenes with tetrazine 3; format: physicochemical
Description: A tetrazine 3 stock solution was prepared in DMSO and used to prepare tetrazine solutions at 0.6 mM final concentration in 12% v/v DMSO in ddH2O. Reactions were initiated with excess cyclopropene at final concentrations of 6.0, 8.0, and 10.0 mM. The disappearance of the tetrazine absorption peak at 520 nm was tracked over the reaction timeframe by measuring the absorption spectra using a NanoDrop 2000c spectrophotometer (Thermo Scientific). Samples were placed in a quartz cuvette with 10-mm pathlength and stirred at the maximum speed setting of the instrument. The temperature was uncontrolled by the instrument for room temperature (20° C.) measurements, and set and equilibrated at 37° C. for the higher temperature experiments.
Absorption spectra were measured manually over time. Absorption peak signal was taken as the average of measurements at 519-521 nm. Baseline signal was determined as the sloping line connecting the measured background levels preceding and following the tetrazine peak (410-430 nm and 590-610 nm, respectively). Final peak intensity value was taken as the signal above the baseline. Reaction rates were obtained by fitting the exponential decays of tetrazine peak absorption intensity as a pseudo first order reaction. Nonlinear data fits were performed with GraphPad Prism. Tetrazine reactions with cyclopropene carbamate 5 were carried out at 20 and 37° C. (data points and corresponding fitted curves at 20° C. in FIG. 51, 37° C. in FIG. 2c). Tetrazine reactions with cyclopropene carboxamide 2 were done at 37° C. ([…]. A representative comparison fit is shown for cyclopropenes 5 and 2 at 8.0 mM concentration reacting at 37° C. with 0.6 mM tetrazine.

Compound: 13merFl5′tet: 5′-tetrazine-/5AmMC6//iFluorT/CG ATG GCG TCA A-3′ (SEQ ID NO:4) (DNA CGATGGCGTCAA; 5' tetrazine, amino C6 linker, internal fluorescein-dT, chemistry not fully specified)
Melting T (27mer DNA template [1]): 57.4 °C | change in fluorescence in the absence of template (27mer DNA template [2]; listed as 13merF15′tet): no appreciable change in fluorescence over time | change in fluorescence in the absence of template (27mer DNA template [2]; listed as Fluorogenic tetrazine probe): does not turn on | increase in the peak emission intensity (27mer DNA template [2]; reaction with the cyclopropene probe in the presence of a DNA template): 9.3 fold | autohydrolytic turn-on [3]: minimal

Compound: CC(=O)OC[C@H]1OC(OC(C)=O)[C@H](NC(=O)CN=[N+]=[N-])[C@@H](OC(C)=O)[C@H]1OC(C)=O (stereo partly drawn) [Ac4GalNAz, tetraacetylated N-azidoacetylgalactosamine, reference compound]
cell surface staining after co-incubation of both sugars ([4]; 100 μM, 2 days, stained with 10 μM tetrazine-Alexa Fluor 488 and 15 μM DIBO 647): cell surface staining in both the fluorescent channels | cross reactivity: surface staining with tetrazine-Alexa Fluor 488 ([4]; cells incubated with only this sugar): minimal surface staining

Compound: CC1=CC1/C=C/C(=O)O (stereo not drawn) [Compound 13]
aqueous stability [5]: unstable to incubation in aqueous solvent at 37 °C

aqueous stability [5]: greatly improved stability
Compound: CC1=CC1/C=C/C(=O)NCCO (stereo not drawn) [Compound 14]
rate of reaction with tetrazines (in words) [6]: significantly lowered the rate of reaction with tetrazines

time to complete decomposition ([5]; D2O/DMSO-d6=4:1 at room temperature): 10.5 h | aqueous stability [5]: unstable in aqueous solution | storage stability at −20° C. [7]: not stable to long-term storage
Compound: CC1=CC1/C=C/CO (stereo not drawn) [Compound 16]
rate of reaction with tetrazines (in words) [6]: greatly increased the reaction rate

Compound: CC(=O)N[C@H]1[C@@H](O)[C@H](O)[C@@H](CO)O[C@@H]1O [ManNAc]
effect on staining of cells exposed to 100 μM Ac4ManNCyc (SKBR3 cells): lowered fluorescent signal

Compound: CC1=C([Si](C)(C)C)C1C=O (stereo not drawn) [cyclopropen aldehyde 11]
storage stability at −20° C. [7]: slowly degrading over 48 hours

Compound: CC1=CC1C(N)=O (stereo not drawn) [cyclopropene 2, 2-methylcycloprop-2-enecarboxamide]
long-term storage stability [7]: could be stored for extended periods of time without degradation | second order rate constant ([8]; 37° C., water/DMSO (12% DMSO by volume)): 0.137 ± 0.004 M⁻¹ s⁻¹

long-term storage stability [7]: not amenable long-term storage
Compound: CC1=C([Si](C)(C)C)C1CN (stereo not drawn) [cyclopropene amine 3]

Compound: CC1=C([Si](C)(C)C)C1CN=[N+]=[N-] (stereo not drawn) [cyclopropene azide 2]
long-term storage stability [7]: not amenable long-term storage

Compound: CC(=O)N[C@H]1[C@@H](OCc2ccccc2)O[C@H](CO)[C@H](O)[C@@H]1O [αBnGalNAc]
effect on staining of cells exposed to 100 μM Ac4ManNCyc (SKBR3 cells): severely diminished staining

Compound: cyclopropene carbamate
rates of cycloaddition with unsubstituted tetrazine relative to methyl-tetrazine ([6]; previous studies with faster reacting unsubstituted tetrazine): 36 fold faster | rate of cycloaddition relative to cyclopropene amide 1 ([8]; reacting with tetrazine 3 in aqueous solution): approximately one-hundred times faster

Compound: tunicamycin
effect on staining of cells exposed to 100 μM Ac4ManNCyc (SKBR3 cells): severely diminished staining
